This note sets out measurements from patent publication US20240368174A1, “Antiviral Heterocyclic Compounds” (Enanta Pharmaceuticals, Inc., priority 2023, published 2024).

A value given as a limit tells only on which side of the number the result lay.

The first assay deals with genotype A, “Long” strain RSV. Put plainly: RSV-A assay (CPE, ATPlite readout in Hep-2 cells). Conditions: activity class. The class given is cell-based, Human respiratory syncytial virus. The text has this:
Hep-2 cells, (originally derived from tumors grown in irradiated-cortisonised weanling rats that had been injected with epidermoid carcinoma tissue from the larynx of a person, but later found to be indistinguishable from HeLa cells by PCR DNA analysis), were used for the culturing of genotype A, “Long” strain RSV. Flasks were inoculated with RSV and viral stocks were collected once cytopathic effect (CPE) was greater than 90%. Viral stocks in 25% sucrose media were snap frozen using liquid nitrogen to increase viral stability. Viral stock titers were quantified by tissue culture infectious dose 50% (TCID50) using 8,000 cells per well and 3-fold viral dilutions across a 96-well plate, cultured for 4 days. Viral stock titers were also quantified by a plaque forming unit assay, as described elsewhere.
Following extensive parameter testing, the final assay is run as follows: Hep-2 cells are seeded into the inner 60 wells of a 96-well plate at 8,000 cells per well in a volume of 50 μL using Growth Media (DMEM without phenol red, 1% L-Glut, 1% Penn/Strep, 1% nonessential amino acids, 10% heat-inactivated FBS). 2-fold serial dilutions of control and test compounds are added to the wells in duplicate in a total volume of 25 μL. Viral stock is then added to the wells at a multiplicity of infection (MOI) of 0.1 in a volume of 25 μL, bringing the total volume of each well to 100 μL. The MOI is calculated using the PFU/mL, or TCID50 if unavailable. Each 96-well plate has a control column of 6 wells with cells and virus but no compound (negative control, max CPE), a column with cells but no compound or virus (positive control, minimum CPE), and a column with no cells or virus or compound (background plate/reagent control). The control wells with cells but no virus are given an additional 25 μL of growth media containing an equal quantity of sucrose as those wells receiving the viral stock in order to keep consistent in media and volume conditions. The outer wells of the plate are filled with 125 μL of moat media (DMEM, 1% Penn/Strep) to act as a thermal and evaporative moat around the test wells. Following a 5-day incubation period, the plates are read using ATPlite (50 uL added per well), which quantifies the amount of ATP (a measure of cell health) present in each well. Assay plates are read using the Envision luminometer. […] EC50 ranges are as follows: A<0.2 μM; B>0.2 μM.
`COc1cc(C(=O)NC[C@](O)(c2cc3c(c(-c4ccnc(Cl)c4Cl)n2)OC[C@]3(C)C(N)=O)C2CC2)cc2cn(C(F)F)nc12` [Example 732]: the concentration giving a half-maximal response (EC50) (commonly the concentration that produces a half-maximal response) was under 200 nM.

The assay is the same for the next values; noted with them: human respiratory syncytial virus, activity class.
As for `COc1cc(C(=O)NC[C@](O)(c2cc3c(c(-c4cc(C(F)(F)F)c(F)cc4F)n2)OC[C@]3(C)C(N)=O)C2CC2)cc2cn(C(F)F)nc12` [Example 310], the EC50 is under 200 nM.

Take `COc1cc(C(=O)NC[C@](O)(c2cc3c(c(-c4ccnc(C)c4Cl)n2)OC[C@]3(C)C(N)=O)C2CC2)cc2cn(C(F)F)nc12` [Example 753]: the EC50 is under 200 nM.

Turning to `COc1cc(C(=O)NC[C@](O)(c2cc3c(c(-n4nc(Cl)c5ccccc54)n2)OC[C@]3(C)C(N)=O)C2CC2)cc2cn(C3CC3)nc12` [Example 451], the EC50 is under 200 nM.

As to `COc1cc(C(=O)NC[C@](O)(c2cc3c(c(-c4ccnc(C)c4Cl)n2)OC[C@]3(C)C(N)=O)C2CC2)cc2cc(Cl)c(C)nc12` [Example 675], the EC50 was under 200 nM.

With `COc1cc(C(=O)NC[C@](O)(c2cc3c(c(-c4ccnc(C(F)(F)F)c4Cl)n2)OC[C@]3(C)C(N)=O)C2(F)CC2)cc2cn(C3CC3)nc12` [Example 784], the EC50 was under 200 nM.

`COc1cc(C(=O)NC[C@](O)(c2cc3c(c(-c4ccnc(OC(F)F)c4Cl)n2)OC[C@]3(C)C(N)=O)C2CC2)cc2cn(C3CC3)nc12` [Example 438] gave an EC50 of under 200 nM.

`COc1cc(C(=O)NC[C@](O)(c2cc3c(c(-c4cc(C(F)(F)F)ncc4F)n2)OC[C@]3(C)C(N)=O)C(F)(F)F)cc2cn(C3CC3)nc12` [Example 425]: the EC50 was under 200 nM.

With `COc1cc(C(=O)NC[C@](O)(c2cc3c(c(-n4ccc5ccccc54)n2)OC[C@]3(C)C(N)=O)C2CC2)cc2oc(C3CC3)nc12` [Example 748], the EC50 is under 200 nM.

As for `COc1cc(C(=O)NC[C@](O)(c2cc3c(c(-c4cccc(OC(F)(F)F)c4Cl)n2)OC[C@]3(C)C(N)=O)C2CC2)cc2cn(C3CC3)nc12` [Example 440], the 50% effective concentration (EC50) is under 200 nM.

On to `COc1cc(C(=O)NC[C@@](O)(c2cc(F)nc(F)c2)c2cc3c(c(-c4cccc(Cl)c4Cl)n2)OC[C@]3(C)C(N)=O)cc2cn(C3CC3)nc12` [Example 575], for which the EC50 is under 200 nM.

Compound `COc1cc(C(=O)NC[C@](O)(c2cc3c(c(-c4cccc(F)c4Cl)n2)OC[C@]3(C)C(N)=O)C2CC2)cc2cn(C(F)F)nc12` [Example 614] came in with an EC50 of under 200 nM.

`COc1cc(C(=O)NC[C@](O)(c2cc3c(c(-c4cccc(OC(F)F)c4Cl)n2)OC[C@]3(C)C(N)=O)C2CC2)cc2cn(C3CC3)nc12` [Example 439]: the EC50 was under 200 nM.

Consider `Cc1nccc(-c2nc([C@@](O)(CNC(=O)c3cc(Cl)c4nn(C5CC5)cc4c3)C3CC3)cc3c2OC[C@]3(C)C(N)=O)c1Cl` [Example 674], for which the EC50 was under 200 nM.

In the case of `COc1cc(C(=O)NC[C@](O)(c2cc3c(c(-c4cc(C(F)(F)F)ncc4F)n2)OC[C@]3(C)C(N)=O)C2(F)CC2)cn2cc(C3CC3)nc12` [Example 461], the EC50 was under 200 nM.

`COc1cc(C(=O)NC[C@](O)(c2cc3c(c(-n4ccc5ccc(F)cc54)n2)OC[C@]3(C)C(N)=O)C(F)(F)F)cc2cn(C3CC3)nc12` [Example 853] returned a half-maximal effective concentration (EC50) of under 200 nM.

Compound `COc1cc(C(=O)NC[C@](O)(c2cc3c(c(-c4cc(C(F)(F)F)ncc4F)n2)OC[C@]3(C)C(N)=O)C2(F)CC2)cc2cn(C3CC3)nc12` [Example 458] had an EC50 of under 200 nM.

In turn, `COc1cc(C(=O)NC[C@](O)(c2cc3c(c(-c4ccnc(Cl)c4Cl)n2)OC[C@]3(C)C(N)=O)C2CC2)cc2cn(C(F)F)nc12` [Example 422] registered an EC50 of under 200 nM.

Take `COc1cc(C(=O)NC[C@](O)(c2cc3c(c(-c4ccnc5c4ccn5C)n2)OC[C@]3(C)C(N)=O)C2CC2)cc2cn(C3CC3)nc12` [Example 420]: the EC50 is under 200 nM.

In the case of `COc1cc(C(=O)NC[C@](O)(c2cc3c(c(-n4ccc5ccccc54)n2)OC[C@]3(C)C(N)=O)C2(F)CC2)cc2cn(C3CC3)nc12` [Example 716], the EC50 is under 200 nM.

With `COc1cc(C(=O)NC[C@](O)(c2cc3c(c(-c4cccc(F)c4Cl)n2)OC[C@]3(C)C(N)=O)C2CC2)cc2oc(C3CC3)nc12` [Example 616], the EC50 was under 200 nM.

`COc1cc(C(=O)NC[C@](O)(c2cc3c(c(-c4ccnc(C)c4Cl)n2)OC[C@]3(C)C(N)=O)C2CC2)cc2cn(C3CC3)nc12` [Example 426] displayed a 50% effective concentration (EC50) of under 200 nM.

`COc1cc(C(=O)NC[C@](O)(c2cc3c(c(-c4cc(C(F)F)ncc4Cl)n2)OC[C@]3(C)C(N)=O)C2CC2)cc2cn(C3CC3)nc12` [Example 437] showed an EC50 of under 200 nM.

`C[C@]1(C(N)=O)COc2c1cc([C@@](O)(CNC(=O)c1cc(OCCO)c3nn(C4CC4)cc3c1)C1CC1)nc2-c1ccc(F)c(F)c1Cl` [Example 676] came in with an EC50 of under 200 nM.

In turn, `C[C@]1(C(N)=O)COc2c1cc([C@@](O)(CNC(=O)c1cc(OCCO)c3nn(C4CC4)cc3c1)C1CC1)nc2-c1ccc(F)c(Cl)c1Cl` [Example 677] yielded an EC50 of under 200 nM.

With `COc1cc(C(=O)NC[C@](O)(c2cc3c(c(-c4cncc(Cl)c4Cl)n2)OC[C@]3(C)C(N)=O)C2CC2)cc2cn(C(F)F)nc12` [Example 772], the EC50 is under 200 nM.

Consider `COc1cc(C(=O)NC[C@](O)(c2cc3c(c(-n4ccc5cc(F)ccc54)n2)OC[C@]3(C)C(N)=O)C2CC2)cc2cn(C3CC3)nc12` [Example 453], for which the EC50 was under 200 nM.

For `COc1cc(C(=O)NC[C@](O)(c2cc3c(c(-c4ccnc(C)c4Cl)n2)OC[C@]3(C)C(N)=O)C2CC2)cc2oc(C3CC3)nc12` [Example 755], the EC50 was under 200 nM.

`COc1cc(C(=O)NC[C@](O)(c2cc3c(c(-c4ccnc(C)c4Cl)n2)OC[C@]3(C)C(N)=O)C2CC2)cn2cc(C3CC3)nc12` [Example 672]: the EC50 is under 200 nM.

Compound `COc1cc(C(=O)NC[C@](O)(c2cc3c(c(-n4ccc5cccc(F)c54)n2)OC[C@]3(C)C(N)=O)C(F)(F)F)cc2cn(C3CC3)nc12` [Example 854] showed an EC50 of under 200 nM.

In turn, `COc1cc(C(=O)NC[C@](O)(c2cc3c(c(-n4ccc5cccc(F)c54)n2)OC[C@]3(C)C(N)=O)C2CC2)cc2cn(C3CC3)nc12` [Example 455] registered an EC50 of under 200 nM.

Take `COc1cc(C(=O)NC[C@](O)(c2cc3c(c(-n4ccc5c(F)cccc54)n2)OC[C@]3(C)C(N)=O)C(F)(F)F)cc2cn(C(F)F)nc12` [Example 684]: the EC50 was under 200 nM.

`COc1cc(C(=O)NC[C@](O)(c2cc3c(c(-n4nnc5ccccc54)n2)OC[C@]3(C)C(N)=O)C2CC2)cc2cn(C3CC3)nc12` [Example 450] registered an EC50 of under 200 nM.

`COc1cc(C(=O)NC[C@](O)(c2cc3c(c(-c4ccnc(C)c4Cl)n2)OC[C@]3(C)C(N)=O)C2CC2)cc2cn(C3(F)CC3)nc12` [Example 754] displayed an EC50 of under 200 nM.

With `COc1cc(C(=O)NC[C@](O)(c2cc3c(c(-c4ccnc(Cl)c4Cl)n2)OC[C@]3(C)C(N)=O)C2CC2)cc2cn(C3(F)CC3)nc12` [Example 441], the EC50 was under 200 nM.

The compound `COc1cc(C(=O)NC[C@@](O)(c2ccnc(N(C)C)c2)c2cc3c(c(-c4cc(Cl)c(F)cc4F)n2)OC[C@]3(C)C(N)=O)cc2cn(C3CC3)nc12` [Example 884] registered a concentration giving a half-maximal response (EC50) of under 200 nM.

`COc1cc(C(=O)NC[C@@](O)(c2cc3c(c(-c4ccnc(Cl)c4Cl)n2)OC[C@]3(C)C(N)=O)C2CC2)cc2cn(C(F)F)nc12` [Example 733] registered an EC50 of under 200 nM.

In turn, `COc1cc(C(=O)NC[C@](O)(c2cc3c(c(-c4cc(C(F)(F)F)ncc4F)n2)OC[C@]3(C)C(N)=O)C2(F)CC2)cc2cn(C(F)F)nc12` [Example 460] gave an EC50 of under 200 nM.

The compound `COc1cc(C(=O)NC[C@](O)(c2cc3c(c(-c4cc(C(F)(F)F)ncc4F)n2)OC[C@]3(C)C(N)=O)C2(F)CC2)cc2cc(C3CC3)nn12` [Example 462] displayed an EC50 of under 200 nM.

With `COc1cc(C(=O)NC[C@](O)(c2cc3c(c(-n4ccc5ccc(F)cc54)n2)OC[C@]3(C)C(N)=O)C2CC2)cc2cn(C3CC3)nc12` [Example 454], the EC50 is under 200 nM.

Take `COc1cc(C(=O)NC[C@](O)(c2cc3c(c(-c4cncc(Cl)c4Cl)n2)OC[C@]3(C)C(N)=O)C2CC2)cc2cn(C3(F)CC3)nc12` [Example 773]: the EC50 is under 200 nM.

Another assay concerns HMPV clinical isolate A2 strain TN 94-49. The assay can be described thus: HMPV antiviral assay, Method 2 (LLC-MK2 cells with CP-100-356, ATP-Lite). The class given is cell-based. The following applies: human metapneumovirus; hMPV A2 TN/94-49, LLC-MK2 cells with CP-100-356, Method 2. The procedure, abridged: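 LLC-MK2 rhesus kidney cells (5,000/well) infected in suspension with HMPV A2 TN 94-49 at MOI 0.16, in serum-free medium with final 2 μg/mL TPCK-trypsin and 2 μM CP-100-356. Compounds tested in duplicate from 200 nM, 2.5-fold, 10 points; 7 days at 37 °C. Cell health by ATP-Lite luminescence; EC50 by four-parameter fit.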
The compound `COc1cc(C(=O)NC[C@](O)(c2cc3c(c(-c4cc(C(F)(F)F)c(F)cc4F)n2)OC[C@]3(C)C(N)=O)C2CC2)cc2cn(C(F)F)nc12` [Example 310] gave an EC50 of under 200 nM.
